Measured values reported in US10105365B2, “Solid antiviral dosage forms” (AbbVie Inc., priority 2014, dated 2018).

Assays:
[1] = Human pharmacokinetic study, Example 5 Arm II (multiple dose, crossover); assay type: in vivo; settings: for AUC: read-out: AUC24, geometric mean; for concentration at 24 h: read-out: C24, geometric mean
Protocol: (§1) A Phase 1, non-fasting, open-label, two-arm, four-period, randomized, crossover study was conducted to compare and characterize the pharmacokinetics of (i) Triple Tablet when co-administered with Single Tablet, and (ii) Formulation C5-12 as discussed below. Part 1 was a single dose, two-treatment, randomized, four period, two sequence replicated crossover study with 88 subjects. Doses in the four periods were separated by at least 10 days. Part 2 was a multiple-dose, two-treatment, two period, randomized crossover study with 66 subjects. Dosing in each period was 14 days and doses in the two periods were separated by at least 10 days.
(§2) Adult male and female subjects in general good health were selected to participate in the study according to the selection criteria. Subjects meeting the selection criteria were randomly assigned to one of the sequences of Regimens A and B (four sequences for Arm I and two sequences for Arm II) as shown below in Table 5-A.
(§3) Study drug was administered as provided below in Table 5-B.
(§4) Each study regimen was taken orally with approximately 240 mL of water approximately 30 minutes after the start of standardized breakfast. Study regimens were administered orally in the morning on Study Day 1 of each period. Serial blood samples for pharmacokinetic analysis were collected 72 hours after dosing in each period.

[2] = Sink Conditions dissolution testing of Formulation C5-12; assay type: physicochemical; settings: N = 6
Protocol: The release profiles of Formulation C5-12 of Example 1 were evaluated in a Sink Conditions dissolution study. The study was conducted in 900 mL of dissolution medium using a standard USP dissolution Apparatus 2 (paddle) operating at 100 RPM at 37±0.5° C. The dissolution medium was a 0.05 M sodium phosphate buffer pH 6.8 with 15 mM cTAB as a surfactant.

[3] = Human pharmacokinetic study, Example 4 Arm II (single dose, crossover); assay type: in vivo; settings: for AUC(0-inf): read-out: AUC∞, geometric mean; for concentration at 24 h: read-out: C24, geometric mean
Protocol: Formulation C5-12 and a second formulation were tested in Arm II of the study. Adult male and female subjects (N=30 for combined Arm I and Arm II studies) in general good health were selected to participate in the study according to the selection criteria. Subjects meeting the selection criteria were randomly assigned to one of the Regimen sequences as shown below in Table 4-A.
Study drug was administered as provided below in Table 4-B.
Each study regimen was taken orally with approximately 240 mL of water approximately 30 minutes after the start of standardized breakfast. Study regimens were administered orally in the morning on Study Day 1 of each period. For Regimen A the evening dose of the Single Tablet was taken orally with approximately 240 mL of water approximately 30 minutes after the start of the evening snack. Serial blood samples for pharmacokinetic analysis were collected 72 hours after dosing in each period.
The data presented in Tables 4-C through 4-G are preliminary data and are subject to database lock and final data verification.

[4] = Human pharmacokinetic study, Example 4 Arm III (14-day multiple dose, steady state); assay type: in vivo; settings: three Formulation C5-12 tablets daily for 14 days, non-fasting
[5] = assay type: physicochemical
From the text: Moreover, hot melt extrusion, a method commonly used to prepare amorphous solid dispersions, often involves the use of high temperature to assist the formation of a melt that is composed of all components of the final solid dispersion.
This allows the preparation of smaller solid dosage forms (e.g., tablets) comprising all three drug substances.

[6] = Human pharmacokinetic study, Example 5 Arm I (single dose, replicated crossover); assay type: in vivo; settings: single dose, non-fasting; for AUC(0-inf) / Cmax: both sexes, human, in vivo, oral
Protocol: as §1, §2, §3, §4
Tables 5-C, 5-D, 5-E, and 5-F below report the Arm I pharmacokinetic data for Formulation C5-12 (separately reported for each of Compounds 1, 2, 3, and 4). Table 5-G presents the results of a relative bioavailability and 90% confidence interval analysis of the pharmacokinetic data for Formulation C5-12 relative to the reference regimen. The data presented in Tables 5-C through 5-G are preliminary data and are subject to database lock and final data verification by the statistician.

[7] = Example 5 Arm II, multiple dose 14 days, non-fasting, Regimen B (reference regimen): two Triple Tablets + one Single Tablet morning, one Single Tablet evening, N = 63
[8] = both sexes, human, blood, oral, 3 film-coated Formulation C5-12 tablets daily, Example 5 Arm II, multiple dose 14 days, non-fasting, Regimen A (C5-12): three film-coated Formulation C5-12 tablets daily, N = 63
[9] = both sexes, human, blood, oral, Example 5 Arm II, multiple dose 14 days, non-fasting, Regimen B (reference regimen): two Triple Tablets + one Single Tablet morning, one Single Tablet evening, N = 63
[10] = Example 4 Arm II, single dose, non-fasting, Regimen E (C5-12): three Formulation C5-12 tablets in the morning, N = 13
[11] = both sexes, human, blood, oral, 3 Formulation C5-12 tablets, Example 4 Arm II, single dose, non-fasting, Regimen E (C5-12): three Formulation C5-12 tablets in the morning, N = 13
[12] = both sexes, human, blood, oral, Example 4 Arm II, single dose, non-fasting, Regimen A (reference regimen): two Triple Tablets + one Single Tablet morning, one Single Tablet evening, N = 13
[13] = Regimen A (C5-12): three film-coated Formulation C5-12 tablets, N = 172
[14] = Regimen B (reference regimen): two Triple Tablets + one Single Tablet morning, one Single Tablet evening, N = 171

For `CC(C)c1nc(CN(C)C(=O)N[C@H](C(=O)N[C@@H](Cc2ccccc2)C[C@H](O)[C@H](Cc2ccccc2)NC(=O)OCc2cncs2)C(C)C)cs1` [Compound 3, 1,3-thiazol-5-ylmethyl N-[(2S,3S,5S)-3-hydroxy-5-[(2S)-3-methyl-2-{[methyl({[2-(propan-2-yl)-1,3-thiazol-4-yl]methyl})carbamoyl]-amino}butanamido]-1,6-diphenylhexan-2-yl]carbamate, reference compound], the “Cmax, arithmetic mean, % CV” value [1, 7] was “(1800,44) ng/mL”, the “Cmax, geometric mean” value [1, 7] was 1680 ng/mL and the half-life [1, 8] was 4.6 h. For the same molecule, the AUC [1, 8] was 8670 ng·h/mL, the concentration at 24 h [1, 8] was 36.2 ng/mL and the Cmax ([1]; both sexes, human, blood, oral, 3 film-coated Formulation C5-12 tablets daily, Example 5 Arm II, multiple dose 14 days, non-fasting, Regimen A (C5-12): three film-coated Formulation C5-12 tablets daily, N = 63, read-out: Cmax, geometric mean) was 1340 ng/mL. For the same molecule, the AUC [1, 9] was 9580 ng·h/mL, the concentration at 24 h [1, 9] was 35.1 ng/mL and the “Cmax,ss lower than Cmax,ss for the reference regimen” value ([1]; both, human, in vivo, 14 days) was 21%. The “Exposures (C24,ss and AUC24,ss) versus the reference regimen” value ([1]; in vivo) was “bioequivalent”, the “% Released” value ([2]; 1 hour, 900 mL 0.05 M sodium phosphate buffer pH 6.8, 15 mM cTAB, USP Apparatus 2, 100 RPM, 37 °C) was 58% and the “% Released” value ([2]; 4 hours, pH 6.8 buffer, 15 mM cTAB) was 99%. The “% Released” value ([2]; 6 hours, pH 6.8 buffer, 15 mM cTAB) was 100%, the “% Released” value ([2]; 8 hours, pH 6.8 buffer, 15 mM cTAB) was 103% and the “% Released” value ([2]; 12 hours, pH 6.8 buffer, 15 mM cTAB) was 102%. For the same molecule, the “% Released” value ([2]; 16 hours, pH 6.8 buffer, 15 mM cTAB) was 100%, the “Cmax, geometric mean” value ([3]; Example 4 Arm II, single dose, non-fasting, Regimen A (reference regimen): two Triple Tablets + one Single Tablet morning, one Single Tablet evening, N = 13) was 1170 ng/mL and the “AUCt, geometric mean” value [3, 10] was 8160 ng·h/mL. The “Cmax, geometric mean” value [3, 10] was 1160 ng/mL, the t1/2 [3, 10] was 4.2 h and the AUC(0-inf) [3, 11] was 8270 ng·h/mL. For the same molecule, the concentration at 24 h [3, 11] was 38.8 ng/mL, the Tmax ([3]; both sexes, human, blood, oral, 3 Formulation C5-12 tablets, Example 4 Arm II, single dose, non-fasting, Regimen E (C5-12): three Formulation C5-12 tablets in the morning, N = 13, read-out: Tmax) was 4.9 h and the half-life [3, 12] was 4.9 h. For the same molecule, the concentration at 24 h [3, 12] was 37 ng/mL, the AUC(0-t) ([3]; both sexes, human, in vivo, Example 4 Arm II, single dose, non-fasting, Regimen A (reference regimen): two Triple Tablets + one Single Tablet morning, one Single Tablet evening, N = 13, read-out: AUCt, geometric mean) was 7710 ng·h/mL and the AUC(0-inf) ([3]; both sexes, human, in vivo, Example 4 Arm II, single dose, non-fasting, Regimen A (reference regimen): two Triple Tablets + one Single Tablet morning, one Single Tablet evening, N = 13) was 7900 ng·h/mL. For the same molecule, the “C24, arithmetic mean, % CV” value ([3]; both, human, in vivo, 24 h) was “(46.3, 62) ng/mL”, the Tmax ([4]; human, in vivo, oral, 3 Formulation C5-12 tablets daily, Day 1, N = 14) was 5.4 h and the concentration at 24 h ([4]; human, in vivo, oral, 3 Formulation C5-12 tablets daily, Day 1, N = 14, read-out: C24, geometric mean) was 34.7 ng/mL. For the same molecule, the Tmax ([4]; human, in vivo, oral, 3 Formulation C5-12 tablets daily, Day 14, N = 14) was 4.7 h, the AUC ([4]; human, in vivo, oral, 3 Formulation C5-12 tablets daily, Day 14, N = 14, read-out: AUC24, geometric mean) was 10700 ng·h/mL and the concentration at 24 h ([4]; human, in vivo, oral, 3 Formulation C5-12 tablets daily, Day 14, N = 14, read-out: C24, geometric mean) was 40 ng/mL. The Cmax ([4]; human, in vivo, oral, 3 Formulation C5-12 tablets daily, Day 14, N = 14, read-out: Cmax, geometric mean) was 1430 ng/mL, the “AUC24, geometric mean” value ([4]; Day 1, N = 14) was 7230 ng·h/mL and the “Cmax, geometric mean” value ([4]; Day 1, N = 14) was 921 ng/mL. For the same molecule, the t1/2 ([4]; Day 14, N = 14) was 4.0 h, the β ([4]; Day 14, N = 14) was 0.174 h⁻¹ and the “Degradation in hot melt extrusion” value [5] was “well within the acceptable levels”. The “Temperature beyond which degradation can reach unacceptable levels” value [5] was greater than 140 °C, the AUC(0-inf) ([6]; 3 film-coated Formulation C5-12 tablets, Regimen A (C5-12): three film-coated Formulation C5-12 tablets, N = 172, read-out: AUC∞, geometric mean) was 8090 ng·h/mL and the Cmax ([6]; 3 film-coated Formulation C5-12 tablets, Regimen A (C5-12): three film-coated Formulation C5-12 tablets, N = 172, read-out: Cmax, geometric mean) was 1130 ng/mL. For the same molecule, the AUC(0-inf) ([6]; Regimen B (reference regimen): two Triple Tablets + one Single Tablet morning, one Single Tablet evening, N = 171, read-out: AUC∞, geometric mean) was 8750 ng·h/mL, the Cmax ([6]; Regimen B (reference regimen): two Triple Tablets + one Single Tablet morning, one Single Tablet evening, N = 171, read-out: Cmax, geometric mean) was 1430 ng/mL and the “AUCt, geometric mean” value [6, 13] was 7450 ng·h/mL. The “Tmax, first value (geometric mean)” value [6, 13] was 4.0 h, the t1/2 [6, 13] was 4.52 h and the “AUCt, geometric mean” value [6, 14] was 8610 ng·h/mL. The t1/2 [6, 14] was 4.47 h.
